Test results: patent US20240246913A1, “2-CARBOXYL-INDOLE INHIBITORS OF METALLO-BETA-LACTAMASES” (Oxford University Innovation Limited, priority 2021, published 2024)

Assays:
[1] = tested on: bacteria; assay: Thigh and/or septicaemia mouse model of infection, with meropenem; type: in vivo; conditions: NMRI mice; single dose with meropenem subcutaneous 1 h after inoculation; endpoint 3 h after treatment initiation
Protocol: Female NMRI mice (5-6 weeks old, 26-30 gram, n=5) were rendered neutropenic via intraperitoneal injection of two doses of cyclophosphamide on day 4 and day 1 before infection. The animals were infected via intramuscular injection of an inoculum containing 10^6 CFU/mL of bacteria in the left thigh. The animals were treated with a single dose of meropenem subcutaneous +/− inhibitor 1 h after inoculation, and animals were either euthanised at the start of treatment or at the study endpoint at 3 h after treatment initiation. Clinical scores were monitored at 1 and 4 hours post inoculation and were in all cases mild or moderate. Thighs were aseptically removed from the animals, homogenised, diluted, and plated for incubation. Bacterial counting was performed after 18-22 h of incubation at 35° C. in ambient air.
Immunocompetent female NMRI mice mice (5-6 weeks old, 26-30 gram, n=5) were inoculated intraperitoneally with 0.5 ml inoculum containing 5×10^5 CFU suspended in 5% porcine mucin.
The animals were treated with a single dose of meropenem subcutaneous+/−metallo-b-lactamase inhibitor intravenous 1 h after inoculation. Animals were either euthanised at the start of treatment or at the study endpoint at 3 h after treatment initiation. Clinical scores were monitored at 1 and 4 hours post inoculation and were in all cases mild or moderate. Mice were anaesthetised anesthetized with a buprenorphine/tiletamine/zolazepam cocktail and bled, then euthanized and the peritoneum flushed with 2 ml sterile 0.9% NaCl and collected. The blood and/or peritoneal flush were serially diluted and plated for incubation. Bacterial counting was performed after 18-22 h of incubation at 35° C. in ambient air.

[2] = biological target: VIM-1 (Pseudomonas aeruginosa, UniProt A0A0F7KYQ8); assay: MBL inhibition, FC-5 fluorescence assay, VIM-1; type: biochemical; conditions: FC-5 cephalosporin substrate, ranges of obtained pIC50, read-out: pIC50 VIM-1 (converted)
Outline: (§1)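 Turnover of the fluorogenic cephalosporin FC-5 by each MBL, followed as initial rate of fluorescence increase (ex 380/em 460 nm). Dose-response curves fitted with a variable-slope normalized-response model; 4 intra-plate replicates per concentration.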

[3] = Plasma protein binding, equilibrium dialysis, mouse plasma; type: in vitro ADME; conditions: pH 7.4, equilibrium dialysis (RED) 4 hours at 37° C., read-out: Plasma protein binding, fu, Mouse
Outline: (§2)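 Compound at 10 μM in plasma dialysed against 67 mM phosphate buffer pH 7.4 for 4 h at 37° C. in RED device; unbound fraction from buffer and plasma levels by LC-MS/MS. Plasma stability checked in parallel over 4 h at 37° C. versus frozen control.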

[4] = tested on: Escherichia coli NDM-1; assay: Antibiotic susceptibility testing (MIC), EC NDM-1; type: cell-based; conditions: agar or broth dilution (CLSI/EUCAST)
Protocol: (§3) Antibiotic susceptibility testing was performed using the agar or broth dilution method, in line with the Clinical and Laboratory Standards Institute (CLSI) and European Committee on Antimicrobial Susceptibility Testing (EUCAST) requirements.

[5] = biological target: NDM-1 (Klebsiella pneumoniae, UniProt C7C422); assay: MBL inhibition, FC-5 fluorescence assay, NDM-1; type: biochemical; conditions: FC-5 cephalosporin substrate, fluorescence; ranges of obtained pIC50; read-out: pIC50 NDM-1 (converted)
Chain of NDM-1 (C7C422 29-270, looked up, species assumed): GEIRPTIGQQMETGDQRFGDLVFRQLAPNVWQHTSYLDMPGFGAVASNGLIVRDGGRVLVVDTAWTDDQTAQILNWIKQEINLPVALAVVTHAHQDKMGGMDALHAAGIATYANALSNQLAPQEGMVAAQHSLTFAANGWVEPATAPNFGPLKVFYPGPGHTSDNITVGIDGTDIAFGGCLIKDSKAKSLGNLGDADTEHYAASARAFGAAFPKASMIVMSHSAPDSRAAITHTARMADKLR
Outline: as §1

[6] = tested on: Acinetobacter baumannii NDM-1; assay: Antibiotic susceptibility testing (MIC), AB NDM-1; type: cell-based; conditions: agar or broth dilution (CLSI/EUCAST)
Protocol: as §3

[7] = biological target: VIM-2 (Escherichia coli, UniProt Q5U7L7); assay: MBL inhibition, FC-5 fluorescence assay, VIM-2; type: biochemical; conditions: FC-5 cephalosporin substrate, ranges of obtained pIC50, read-out: pIC50 VIM-2 (converted)
Outline: as §1

[8] = biological target: IMP-1 (Serratia marcescens, UniProt P52699); assay: MBL inhibition, FC-5 fluorescence assay, IMP-1; type: biochemical; conditions: FC-5 cephalosporin substrate, fluorescence; ranges of obtained pIC50; read-out: pIC50 IMP-1 (converted)
Chain of IMP-1 (P52699 19-246, looked up, species assumed): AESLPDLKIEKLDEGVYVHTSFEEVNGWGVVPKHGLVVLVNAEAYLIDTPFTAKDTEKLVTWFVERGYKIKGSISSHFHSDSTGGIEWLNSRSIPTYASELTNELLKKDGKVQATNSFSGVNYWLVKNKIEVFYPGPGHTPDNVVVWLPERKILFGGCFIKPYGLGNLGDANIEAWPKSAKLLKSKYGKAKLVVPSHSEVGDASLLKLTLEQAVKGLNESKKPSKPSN
Outline: as §1

[9] = Plasma protein binding, equilibrium dialysis, human plasma; type: in vitro ADME; conditions: pH 7.4, equilibrium dialysis (RED) 4 hours at 37° C., read-out: Plasma protein binding, fu, Human
Outline: as §2

[10] = tested on: Escherichia coli NDM-7; assay: Antibiotic susceptibility testing (MIC), EC NDM-7; type: cell-based; conditions: agar or broth dilution (CLSI/EUCAST)
Protocol: as §3

[11] = Metabolic stability in mouse hepatocytes; type: in vitro ADME; conditions: cryopreserved mouse hepatocytes, 1 μM compound, 37° C., up to 90 min, read-out: Metabolic stability in hepatocytes, in vitro t1/2, Mouse
Protocol: (§4) Metabolic stability assays were performed in cryopreserved human and mouse hepatocytes. The hepatocytes were thawed and added to “Thawing media”, and centrifuged to pellet the hepatocytes. The cell pellet was taken up in Williams medium E (Invitrogen A1217601), the number of cells was calculated and adjusted to 1.0×10^6 cells/mi. The incubation was carried out on a heater-shaker at […], in a 24-well Picoplate (round bottom, PerkinElmer), using an incubation volume of […]. Thus, to obtain a final compound concentration of 1 μM, 0.7 μl of the 1 mM compound stock solution was pipetted to the wells of the plate. Reaction was initiated by adding 700 μl of cell suspension. Samples were incubated at 37° C. for […] and a zero sample was taken, i.e. 100 μl sample was removed to a 96-well plate and the reaction was quenched by adding 100 μl of 100% MeCN containing 50 nM Warfarin as an internal control. Consecutive samples were taken at time-points 5 min, 15 min, 30 min, 60 min, and 90 min. After finishing the experiment, samples were centrifuged at 3000 rpm for 15 min and before analysis by LC-MS/MS (Waters Corp, Milford, MA, USA).

[12] = Metabolic stability in human hepatocytes; type: in vitro ADME; conditions: cryopreserved human hepatocytes, 1 μM compound, 37° C., up to 90 min, read-out: Metabolic stability in hepatocytes, in vitro t1/2, Human
Protocol: as §4

## C[C@@H](c1cccc2c(-c3cncc(O)c3)c(C(=O)O)[nH]c12)N1C[C@]2(C[C@@H](CN)C2)OC1=O [IC-23, 7-((S)-1-((2S,4r)-2-(aminomethyl)-6-oxo-5-oxa-7-azaspiro[3.4]octan-7-yl)ethyl)-3-(5-hydroxypyridin-3-yl)-1H-indole-2-carboxylic acid]
[1]
  Dose required to reduce minim 1 log fold CFU in a thigh and or a sepsis animal model: C (C = 5-10 mg/kg)
[2]
  IC50: 1 to 10 nM
[3]
  fraction unbound at 4 h, 10 μM: 0.005 to 0.05
[4]
  MIC values EC NDM-1: A (A = MIC values ≤ 1)
[5]
  IC50: 1 to 10 nM
[6]
  MIC values AB NDM-1: B (B MIC values 2 ÷ 8)
[7]
  IC50: 0.1 to 1 nM
[8]
  IC50: > 10 nM
[9]
  fraction unbound at 4 h, 10 μM: 0.05 to 0.25
[10]
  MIC values EC NDM-7: A (A = MIC values ≤ 1)

## C[C@@H](c1cccc2c(-c3cc[nH]c(=O)c3)c(C(=O)O)[nH]c12)n1cc(CN2CC(N)C2)oc1=O [IC-54, 7-[(1S)-1-{5-[(3-Aminoazetidin-1-yl)methyl]-2-oxo-2,3-dihydro-1,3-oxazol-3-yl}ethyl]-3-(2-oxo-1,2-dihydropyridin-4-yl)-1H-indole-2-carboxylic acid]
[1]
  Dose required to reduce minim 1 log fold CFU in a thigh and or a sepsis animal model: C (C = 5-10 mg/kg)
[2]
  IC50: > 10 nM
[3]
  fraction unbound at 4 h, 10 μM: > 0.25
[4]
  MIC values EC NDM-1: A (A = MIC values ≤ 1)
[5]
  IC50: 0.1 to 1 nM
[6]
  MIC values AB NDM-1: B (B MIC values 2 ÷ 8)
[7]
  IC50: 1 to 10 nM
[8]
  IC50: > 10 nM
[9]
  fraction unbound at 4 h, 10 μM: > 0.25
[10]
  MIC values EC NDM-7: A (A = MIC values ≤ 1)

## COc1cc(-c2c(C(=O)O)[nH]c3c([C@H](C)n4cc(CN5CC(N)C5)oc4=O)cccc23)ccn1 [IC-56, 7-[(1S)-1-{5-[(3-aminoazetidin-1-yl)methyl]-2-oxo-2,3-dihydro-1,3-oxazol-3-yl}ethyl]-3-(2-methoxypyridin-4-yl)-1H-indole-2-carboxylic acid]
[11]
  half-life at 1 μM: < 2.5 h
[1]
  Dose required to reduce minim 1 log fold CFU in a thigh and or a sepsis animal model: C (C = 5-10 mg/kg)
[2]
  IC50: > 10 nM
[3]
  fraction unbound at 4 h, 10 μM: 0.005 to 0.05
[4]
  MIC values EC NDM-1: A (A = MIC values ≤ 1)
[12]
  half-life at 1 μM: > 6.67 h
[5]
  IC50: < 0.1 nM
[6]
  MIC values AB NDM-1: B (B MIC values 2 ÷ 8)
[7]
  IC50: 0.1 to 1 nM
[8]
  IC50: > 10 nM
[9]
  fraction unbound at 4 h, 10 μM: 0.05 to 0.25
[10]
  MIC values EC NDM-7: A (A = MIC values ≤ 1)

## C[C@H](NC(=O)c1ccc(CN)cc1)c1cccc2c(-c3ccc(CN4CCOCC4)nc3)c(C(=O)O)[nH]c12 [IC-59, 7-((1S)-1-((4-(aminomethyl)benzoyl)amino)ethyl)-3-(6-(morpholin-4-ylmethyl)pyridin-3-yl)-1H-indole-2-carboxylic acid]
[1]
  Dose required to reduce minim 1 log fold CFU in a thigh and or a sepsis animal model: B (B = 30-10 mg/kg)
[2]
  IC50: > 10 nM
[4]
  MIC values EC NDM-1: A (A = MIC values ≤ 1)
[5]
  IC50: < 0.1 nM
[6]
  MIC values AB NDM-1: A (A = MIC values ≤ 1)
[7]
  IC50: < 0.1 nM
[8]
  IC50: > 10 nM
[10]
  MIC values EC NDM-7: A (A = MIC values ≤ 1)

## CC(C)c1cccc2c(-c3cc(Cl)cc(Cl)c3)c(C(=O)O)[nH]c12 [Prior Art Compound 76, reference compound]
[11]
  half-life at 1 μM: < 2.5 h
[1]
  Dose required to reduce minim 1 log fold CFU in a thigh and or a sepsis animal model: A (A = >100 mg/kg)
[2]
  IC50: > 10 nM
[3]
  fraction unbound at 4 h, 10 μM: < 0.005
[12]
  half-life at 1 μM: < 2.5 h
[5]
  IC50: 1 to 10 nM
[7]
  IC50: 0.1 to 1 nM
[8]
  IC50: > 10 nM
[9]
  fraction unbound at 4 h, 10 μM: < 0.005
